Reference: article PMC10294657, “The dCache Domain of the Chemoreceptor Tlp1 in Campylobacter jejuni Binds and Triggers Chemotaxis toward Formate” (mBio, 2023)

Biological target: T1, Tlp1 (Cj1506c), Tlp1-LBD (Campylobacter jejuni, UniProt Q0P8B2)
T1 construct: Tlp1-LBD (residues 31 to 326), dCache domain
Assay: ITC with purified Tlp1-LBD, pH […]°C
Type: binding

T1 sequence (Q0P8B2 entry or part of it): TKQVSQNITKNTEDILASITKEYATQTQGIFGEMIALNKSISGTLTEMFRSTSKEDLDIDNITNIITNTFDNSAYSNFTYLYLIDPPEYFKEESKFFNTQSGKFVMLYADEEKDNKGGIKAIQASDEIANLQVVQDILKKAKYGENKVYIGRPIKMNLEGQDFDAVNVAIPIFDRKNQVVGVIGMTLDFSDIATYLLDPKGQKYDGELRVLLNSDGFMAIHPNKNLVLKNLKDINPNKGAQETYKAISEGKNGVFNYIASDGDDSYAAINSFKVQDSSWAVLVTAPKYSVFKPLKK

## O=CO [formate]
  Kd: 245 ± 74 µM
